Here are results for one compound from paper PMC8162069 (Chemical Science, 2020).

The target in the assay is HepG (Trichoderma virens, UniProt G9NDK9). Kind of assay: X-ray crystal structure. Format: binding. The settings on record: active site of each subunit.

SMILES strings stand for the structures.

Chain of HepG (G9NDK9 1-336): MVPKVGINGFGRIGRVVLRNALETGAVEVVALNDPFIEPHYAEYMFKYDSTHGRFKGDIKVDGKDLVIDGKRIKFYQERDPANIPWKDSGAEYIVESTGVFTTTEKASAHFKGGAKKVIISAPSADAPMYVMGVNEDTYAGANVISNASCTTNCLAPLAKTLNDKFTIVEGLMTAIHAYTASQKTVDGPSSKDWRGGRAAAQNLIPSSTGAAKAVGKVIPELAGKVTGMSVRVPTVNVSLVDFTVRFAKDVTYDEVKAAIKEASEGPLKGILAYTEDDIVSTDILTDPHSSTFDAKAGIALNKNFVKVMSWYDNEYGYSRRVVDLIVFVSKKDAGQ

Take `NC(=O)c1ccc[n+]([C@@H]2O[C@H](COP(=O)(O)OP(=O)(O)OC[C@H]3O[C@@H](n4cnc5c(N)ncnc54)[C@H](O)[C@@H]3O)[C@@H](O)[C@H]2O)c1` [NAD^+]: the X-ray crystal structure result was “Each subunit of the tetrameric HepG contains a NAD^+ cofactor”.
